# Assay results as given in US20240189201A1, “HAIR SERUM AND SUPPLEMENT” (priority 2021, published 2024).
# Assay: Comparison of hair serum compositions formulated with different crystalline CBDs (type A vs type B)
# Settings: hair serum according to Example 2, differing only in the crystalline CBD used
# Protocol: Two hair serum compositions are prepared according to Example 2, the only difference being that the crystalline CBD used in the formulation is either of type A (needle-like crystals; FIG. 1) or type B (bunch/cluster-like; FIG. 2).
# Type A crystalline CBD is sourced from Enecta, while type B CBD is sourced from Pharma Hemp.
structure (smiles),measurement,setting,value
"C=C(C)[C@@H]1CCC(C)=C[C@H]1c1c(O)cc(CCCCC)cc1O [type A CBD, Cannabidiol]","Activity / potency of CBD in hair serum, type A versus type B",,significantly more active than type B CBD
same,"Activity / potency of CBD in hair serum, type A versus type B",listed as crystal structure A,significantly more potent than CBD with a different crystal structure
